Experimental data taken from patent publication US20210113519A1, “Compositions and Methods for Modulating Permeability of Biological Barriers” (Carnegie Mellon University, priority 2018, published 2021).
Entries after “also recorded” stand apart in the source; their conditions may differ.

How the values were obtained:
[1] = system: Caco-2 intestinal epithelial cell monolayers; test: TEER (transepithelial electrical resistance) assay on Caco-2 monolayers; assay type: cell-based, human
Description: (§1) Caco-2 Cell Monolayers: Caco-2 cells were seeded in Basal Seeding Medium (BSM) on a collagen-coated, 24-Multiwell Insert […]® Plate at a concentration of 2×10^5 cells per well. The plate was incubated at 37° C. for one to two days. On the third day, the BSM was replaced with Enterocyte Differentiation Medium (EDM). The plate was then incubated one to two more days at 37° C. to allow complete formation of differentiated monolayers.
TEERAssay: All TEER (transepithelial electrical resistance) values were measured using a voltohmmeter. Between each TEER measurement, the plate was incubated at 37° C. for a minimum of fifteen minutes to allow the cells to rest. To ensure that all the wells contained fully formed Caco-2 monolayers (>200 Ω·cm^2), initial TEER values were measured prior to treatment exposure. After adding the extracts to each well, TEER values were measured at defined intervals for a total of three hours. The treatments were then aspirated, and the cells rinsed with PBS before refilling the wells with fresh EDM. The plates were then left in the incubator at 37° C. for 24 hours, when recovery TEER values were measured.

Caco-2 monolayers = test: Calcein permeability assay through Caco-2 monolayers; assay type: cell-based, human; conditions: for calcein permeability, known phenolic compounds from strawberry: 1 mg/mL; for calcein permeability, anthocyanidins: applied at 0.33 mg/ml, vs untreated control
Description: as §1
Permeability Assays: The paracellular diffusion markers were applied at 0.5 mM (calcein) or 0.1 mM (4 kDa FITC-Dextran), dissolved in EDM with the treatment extracts, to the apical side of fully-formed monolayers (TEER>200 Ω·cm^2). Fresh EDM with the markers was used as a negative control. After one hour, media in the basal chambers was sampled and examined for fluorescence at 495/515 nm. Application of calibration curves yielded an amount of mass transferred across each monolayer, which was used in the permeability equation Papp=ΔM/CaAΔt, where Papp is the apparent permeability through the monolayer, ΔM is the marker mass in the basal compartment, Ca is the apical marker concentration, A is the monolayer area, and Δt is the time between samples. Permeability measurements are expressed as the ratio of monolayer permeability at 3 hours after treatment addition to permeability before treatment addition, normalized to any change in negative control monolayers during that time.

intestinal barrier = test: Oral FITC-DX4 (4 kDa dextran) absorption in mice after oral enhancer; assay type: in vivo; conditions: pelargonidin 40 mg/kg oral, then FITC-DX4 600 mg/kg oral
Description: Examination of strawberry extract efficacy in vivo: For dextran efficacy studies, fasted mice were orally gavaged with 600 mg/kg STRB PPh solutions or 40 mg/kg pelargonidin solutions, then gavaged three hours later with 600 mg/kg FITC-DX4. Three hours after the dextran gavage, blood was collected and centrifuged. The serum was removed and examined for FITC concentration by reading for fluorescence on the plate reader and comparing to a unique calibration curve for each experiment. For larger macromolecule studies, 40 kDa dextran (FITC-DX40) was substituted at the same 600 mg/kg concentration.

intestinal epithelium = test: Insulin delivery study: blood glucose in mice after oral enhancer and intestinal insulin injection; assay type: in vivo
Description: For insulin delivery studies, mice were orally gavaged with PBS (for control) or strawberry treatments (600 mg/kg STRB PPh or 40 mg/kg pelargonidin). One hour later, their initial blood sugar was measured and the animals were placed under anesthesia. Their intestines were surgically exposed, and insulin was injected at the predetermined dose (1 unit per kg body weight unless otherwise specified) into the duodenum of the small intestine, avoiding digestion in the stomach. The mice were closed and secured with tissue adhesive, then kept under anesthesia as their blood sugar levels were monitored each hour for five hours. For comparison to the current standard of insulin delivery, subcutaneous injections were given at 1 U/kg to additional mice, into the scruff on their necks. To determine areas above the curve for each mouse, trapezoidal integration was used to sum the area between known points on the blood glucose curve and the starting blood glucose value for the individual animal.

[2] = pelargonidin between 0.33 and 1.00 mg/mL

Oc1ccc(-c2[o+]c3cc(O)cc(O)c3cc2O)cc1 [pelargonidin]
permeabilization and recovery of barrier function ([1]; 0.33 mg/ml): substantial yet reversible permeabilization
permeabilization and recovery of barrier function ([1]; 0.67 mg/ml): substantial yet reversible permeabilization
permeabilization and recovery of barrier function ([1]; 1 mg/ml): opened the tight junctions beyond their ability to recover barrier function
recovery of barrier function within 24 hours (TEER) ([1]; pelargonidin 0.33, 0.67 and 1.00 mg/mL): only the two lower concentrations recovered their barrier function
TEER response (opening of tight junctions) [1, 2]: dose-dependent opening of the tight junctions
calcein permeability, known phenolic compounds from strawberry (Caco-2 monolayers): effective permeation enhancer; also recorded: significantly increased the permeability of calcein
calcein permeability, anthocyanidins (Caco-2 monolayers): increase the permeability of calcein; also recorded: statistically significant increases
improvement of calcein permeability, dose response (Caco-2 monolayers; [2]): dose dependence was also evident
FITC-DX4 absorption across the intestinal barrier vs saline (PBS) gavage (intestinal barrier): doubled
duration of hypoglycemia vs 1 U/kg subcutaneous insulin (intestinal epithelium; pelargonidin 40 mg/kg oral + 1 U/kg intestinal insulin): sustained hypoglycemia several hours longer
total pharmacodynamic effect (area above the curve) relative to subcutaneous insulin (intestinal epithelium; pelargonidin 40 mg/kg oral + 1 U/kg intestinal insulin vs 1 U/kg subcutaneous): approximately 1.3 times
relative bioactivity value (intestinal epithelium; pelargonidin 40 mg/kg oral + 1 U/kg intestinal insulin vs 1 U/kg subcutaneous insulin, AAC): 130%
blood glucose response to intestinal insulin (intestinal epithelium; pelargonidin 40 mg/kg oral, one hour later 1 U/kg insulin intestinal injection, vs saline gavage): substantial reduction in blood glucose; also recorded: sustained reductions in blood glucose levels

insulin: bovine pancreas insulin [reference compound]
blood glucose response to subcutaneous insulin (intestinal epithelium; 1 U/kg subcutaneous insulin dose): pronounced but brief response

OC[C@H]1O[C@@H](Oc2cc3c(O)cc(O)cc3[o+]c2-c2ccc(O)cc2)[C@H](O)[C@@H](O)[C@@H]1O [callistephin, reference compound]
calcein permeability, known phenolic compounds from strawberry (Caco-2 monolayers): not an effective permeation enhancer

COc1cc(-c2[o+]c3cc(O)cc(O)c3cc2O)cc(O)c1O [petunidin]
calcein permeability, anthocyanidins (Caco-2 monolayers): increase the permeability of calcein; also recorded: statistically significant increases

COc1cc(-c2[o+]c3cc(O)cc(O)c3cc2O)cc(OC)c1O.[Cl-] [malvidin]
calcein permeability, anthocyanidins (Caco-2 monolayers): increase the permeability of calcein; also recorded: statistically significant increases
